Marks after values point to notes of the source that are not given here.
Tests used:
[1] = Distribution of drug between PFC phase and aqueous phase of Dispersion B; format: physicochemical; details: for Drug in emulsion÷ drug in aqueous phase: Dispersion B, blending for 30 minutes
Protocol: (§1) In the course of in vitro chemosensitization studies in the LAN-1 human neuroblastoma spheroid system, conducted substantially as described in Example 4 above except for Adriamycin as the chemotherapeutic agent, it was noted that the anti-tumor activity of the Adriamycin was inhibited by the PFC material (PFC Dispersion B). […] This was tested by dissolving in water a radio-labelled analogue of Adriamycin, C^14-Daunomycin, adding Dispersion B (or in separate experiments, the neat PFC component of Dispersion B), blending for 30 minutes, separating the PFC phase from the aqueous phase, and determining the distribution of drug between the phases. Table VIII below reports the results of the experiment and similar experiments with three other drugs. It will be noted that the more lipophilic Duanomycin preferentially partitioned into the PFC phase whereas the other, less lipophilic, drugs favored the aqueous phase. It was concluded that although the PFC may have an inhibitory effect on less lipophilic drugs, the delivery of lipophilic drugs will be enhanced by the PFC.
The partitioning of the Vincristine between the PFC and aqueous phases of Dispersion B was first studied in comparison with Daunomycin, as reported in Table IX below, where "PFC" means the PFC phase of Dispersion B.

[2] = Octanol:water partition coefficient
[3] = system: P388 leukemia; details: cited from earlier work
[4] = system: MCa-11 mammary carcinoma; test: In vivo chemosensitization with Vincristine; set-up: species or system BALB/c mice; details: Vincristine 1.5 mg/kg i.p. single dose, or 20 ml/kg Dispersion B i.v. with carbogen breathing, each alone
Protocol: The MCa-11 mammary carcinoma was transplanted into the thigh of BALB/c mice and grown to a diameter of 6 mm, at which time the mice were treated. Control mice received an injection of saline, while Vincristine treatment consisted of a single dose of 1.5 mg/kg of Vincristine administered intraperitoneally. PFC treatment consisted of an i.v. injection of 20 ml/kg of Dispersion B, followed by two hours of breathing carbogen (95% 02/5% C02), and injection of saline of Vincristine as before, followed by another two hours of carbogen breathing.

[5] = system: MCa-11 mammary carcinoma; test: In vivo chemosensitization with cyclophosphamide; set-up: species or system BALB/c mice; details: cyclophosphamide 75 mg/kg i.p. single dose
Protocol: The combined use of PFC dispersion (Dispersion B) and high oxygen breathing for enhancement of the anti-tumor effects of cyclophosphamide ("CYC") was investigated with respect to treatment of MCa-11 mammary carcinoma transplanted into the right hind leg of female BALB/c mice. The tumors were allowed to grow to 2 mm at which point the animals were treated as described in Table VII below, wherein the cyclophosphamide, obtained commercially, was dissolved in distilled water and injected in a volume equal to […] of body weight. Three to six animals per treatment group were used in the study. On the day of treatment and three to five times per week thereafter, the tumors were sized with vernier calipers.

[6] = system: LAN-1 human neuroblastoma spheroid system; test: In vitro chemosensitization with Adriamycin, spheroids; format: cell-based; details: in the presence of PFC Dispersion B
Protocol: as §1

[7] = system: NB-100 neuroblastoma multicellular tumor spheroids; test: In vitro chemosensitization with methotrexate, MTS; format: cell-based, human; details: 5 µM MTX for 24 hours
[8] = 1 hour, PFC phase of Dispersion B

## NCCCNCCSP(=O)(O)O [WR-2721, S - 2 - (3 - aminopropylamino) ethylphosphorothioic acid]
[1]
  Drug in emulsion÷ drug in aqueous phase: 0.05
[2]
  logP: -2.7

## COCC(O)Cn1ccnc1[N+](=O)[O-] (stereo not drawn) [Misonidazole]
[1]
  Drug in emulsion÷ drug in aqueous phase: 0.04
[2]
  logP: -0.367

## FC(F)(F)C(F)(F)C(F)(F)C(F)(F)C(F)(F)C(F)(F)C(F)(F)C(F)(F)Br [perfluorooctyl bromide]
[3]; mouse, in vivo
  local toxicity: local toxic reactions in the peritoneal cavity were observed
[3]; oxygen-saturated neat compound injected 24 hours before graded doses of whole body X-rays, versus salt solution
  improvement in therapy (survival time): failed to show a significant improvement in therapy

## CC[C@]1(O)C[C@H]2CN(CCc3c([nH]c4ccccc34)[C@@](C(=O)OC)(c3cc4c(cc3OC)N(C=O)[C@H]3[C@@](O)(C(=O)OC)[C@H](OC(C)=O)[C@]5(CC)C=CCN6CC[C@]43[C@@H]65)C2)C1 [Vincristine]
[4]
  effect on tumor growth: no effect on tumor growth
[1]; [8]
  PFC/H2O (ratio of concentrations in the emulsion and the aqueous phases): 2.69
[1]; 3 hours, determined via bioassay in the LAN-1 neuroblastoma spheroid system
  PFC/H2O (ratio of concentrations in the emulsion and the aqueous phases): 9.10^c
[2]
  logP: 2.83

## COc1cccc2c1C(=O)c1c(O)c3c(c(O)c1C2=O)C[C@@](O)(C(C)=O)C[C@@H]3O[C@H]1C[C@H](N)[C@H](O)[C@H](C)O1 [Daunomycin]
[1]; [8]
  PFC/H2O (ratio of concentrations in the emulsion and the aqueous phases): 1.23
[1]; 3 hours, PFC phase of Dispersion B
  PFC/H2O (ratio of concentrations in the emulsion and the aqueous phases): 3.80
[1]
  Drug in emulsion÷ drug in aqueous phase: 3.77
[2]
  logP: -0.102

## O=P1(N(CCCl)CCCl)NCCCO1 (stereo not drawn) [Cyclophosphamide, cyclophosphamide]
[5]; interpolated from the tumor growth curves
  Days to grow 6 mm: 17.8 days
[5]; relative to untreated controls
  Growth delay: 5.3

## COc1cccc2c1C(=O)c1c(O)c3c(c(O)c1C2=O)C[C@@](O)(C(=O)CO)C[C@@H]3O[C@H]1C[C@H](N)[C@H](O)[C@H](C)O1 [Adriamycin]
[6]
  anti-tumor activity: inhibited

## CN(Cc1cnc2nc(N)nc(N)c2n1)c1ccc(C(=O)N[C@@H](CCC(=O)O)C(=O)O)cc1 [MTX, methotrexate]
other
  Lipophilicity index (partition coefficient of the drug between octanol and water): 0.014
[7]
  D8, number of days required for the MTS to grow 8 units or 200 µm beyond their original diameter: 9.52 days
[7]; Day 0, 1 unit=25 µm
  MTS sizes: 9.83±0.17 microscope units
[7]; Day 1
  MTS sizes: 9.74 microscope units
[7]; Day 4
  MTS sizes: 10.69 microscope units
[7]; Day 6
  MTS sizes: 11.76 microscope units
[7]; Day 8
  MTS sizes: 13.93 microscope units
[7]; Day 12
  MTS sizes: 18.93 microscope units
[7]; Day 15
  MTS sizes: 21.83 microscope units
[1]
  Drug in emulsion÷ drug in aqueous phase: 0.07

Source: patent publication EP0105584B1, “Perfluorocarbon emulsions and their preparation and use in therapy” (ADAMANTECH, INC., priority 1982, dated 1984)
